Measured values as given in patent US6316409A, “Modified ligands of calcium-dependent binding proteins” (Medical Research Council, priority 1996, dated 2001).
Entries after “also recorded” stand apart in the source; their conditions may differ. Peptide text beside a SMILES is read from it.

Legend:
bovine brain calmodulin [1] = biological target: T1, bovine brain calmodulin (Bos taurus, UniProt P62157); test: stopped-flow measurement of kisom of calmodulin-binding peptides; details: changes in tryptophan fluorescence
T1 construct: Complexes between calmodulin from bovine brain (1 μM, Sigma); purchased Sigma; host or cells: bovine brain (tissue-derived)
Excerpt: It has been shown by Torok and Trentham (1994) that smooth muscle MLCK-derived peptides bind to calmodulin with a biphasic kinetic according to the scheme: [drawing 1]
in which P is the peptide, C is calmodulin, P-C is the first complex formed on association of P and C, which then undergoes a conformational isomerisation to P-C*.
(§1) For a kinetic and thermodynamic characterisation of the binding of the peptides of the present invention to bovine brain calmodulin, we have measured the kinetic isomerisation, association, and dissociation constants from which dissociation constants can be derived.
kisom constants have been measured by stopped-flow, detecting changes in tryptophan fluorescence for all the peptides except 3 (SEQ ID NO:4), in which the tryptophan is replaced by alanine.

bovine brain calmodulin [2] = biological target: T1, bovine brain calmodulin; test: BIAcore surface plasmon resonance, kon and koff of calmodulin binding to biotinylated peptides; details: for koff / kon: BIAcore; for koff: read-out: koff (s^-1)^B; for kon: read-out: kon (s^-1 M^-1)^B; for improvement in Kd / affinity for calmodulin over the wild type peptide, in words: Table 1
Excerpt: as §1
koff =k-1·k-2 /(k+2 +k-2)
Real-time interaction analysis by surface plasmon resonance on a BIAcore instrument (Jonsson et al., 1991) was used to determine kon and koff constants. Biotinylated peptides 1-17 were bound to commercially available streptavidin-coated microsensor chips (Pharmacia Biosensor), in order to achieve a surface capacity of 100-200 surface plasmon resonance units of calmodulin bound. Different concentrations of calmodulin (5, 10, 20, 50 and 100 nM in the order of FIG. 2) were injected and allowed to associate with the peptides. Regeneration of the surface was achieved by injection of 5 μl TBS+[…] which dissociates the calmodulin-peptide complex.

calmodulin = calmodulin (Bos taurus, UniProt P62157); test: koff by competition experiments, native PAGE of fluorescein-labelled peptide/calmodulin complexes; type: binding, bovine; set-up: Complexes between calmodulin from bovine brain (1 μM, Sigma); purchased Sigma; host or cells: bovine brain (tissue-derived); details: for koff: competition with 30-fold excess unlabelled peptide, room temperature, gel buffer, read-out: koff (s^-1)^C; for dissociation from calmodulin in competition with excess unlabelled peptide, in words: FIG. 3
Description: Complexes between calmodulin from bovine brain (1 μM, Sigma) and fluorescein-labelled sMLCK-derived peptides (as described in Table 1 (SEQ ID NOS:2-18)) were prepared in gel buffer (25% gel mix [4 g sucrose+1 mg bromophenol blue in water to give a 10 ml solution]+75% TBSC [50 mM TRIS pH 7.4, […]+50 μM CaCl2)] and run on a 15% native PAGE gel (5 ml 30% acrylamide-bisacrylamide solution+4.5 ml water+0.5 ml 3M Tris, pH 8.8, +1 μl 1M CaCl2 polymerised with 30 μl 25% ammonium persulphate and 9 μl TEMED) using 14.4 g/l glycine+3 g/l Tris-base+0.1 mM CaCl2 as running buffer. Peptides were labelled either with iodoacetamido fluorescein (Molecular Probes) or with iodoacetamido-LC-biotin (Pierce) essentially as previously described by Neri et al., (1995). In these conditions, the fluorescence of the positively-charged labelled peptides can be detected only if they form a stable complex with calmodulin.
In order to obtain an independent experimental confirmation if the BIAcore results, koff constants for peptides 1-17 towards calmodulin were determined by competition experiments. 30 nM fluorescein-labelled peptide/calmodulin complexes in gel buffer were competed at room temperature for different times with 30-fold excess of unlabelled peptide. The resulting mixtures were run on native PAGE gels and imaged by LUANA as described above. The bands in the image obtained were integrated using the LUANA software (Neri et al., 1996) and the corresponding intersities plotted versus time and fitted with a single exponential, from which koff constants were derived. In order to normalise band intensities against pipetting errors, the samples contained 6 nM free fluorescein which ran with the front. The fluorescein bands were integrated and used to normalise the calmodulin/fluorescent peptide complex band intensity. The results of competitions for peptides 1, 2, 3, 6, 9, and 14 are shown in this FIG. 3. Incubation time in minutes is indicated under the lanes.
The volumes of the bands were plotted versus competition time and fitted to a single exponential, from which koff values were derived.
The fastest competitions (peptides 1-4, 9 and 13, SEQ ID NOS:2-5,10, and 14) were over by the time the calmodulin/fluorescent peptide complex entered the gel (approximately 5-10 minutes from pipetting a molar excess of unlabelled peptide; FIG. 3), from which a condition on the off-rate constant koff >1×10^-3 s^-1 was derived. Even for these fast off-rates, complexes can be detected by native polyacrylamide gel electrophoresis because of the well known gel "cage effect" (Fried and Crothers, 1981; Garner and Revzin, 1981).

Structure (SMILES)	kisom. (s^-1)^A (bovine brain calmodulin [1])	koff (bovine brain calmodulin [2]) [s⁻¹]	kon (bovine brain calmodulin [2]) [M⁻¹ s⁻¹]	koff (calmodulin) [s⁻¹]	improvement of koff with respect to wild type, in words (bovine brain calmodulin [2])	improvement in Kd / affinity for calmodulin over the wild type peptide, in words (bovine brain calmodulin [2])	dissociation from calmodulin in competition with excess unlabelled peptide, in words (calmodulin)
CC[C@H](C)[C@H](NC(=O)[C@H](C)NC(=O)[C@H](CCCCN)NC(=O)[C@H](Cc1ccccc1)NC(=O)[C@H](CCCNC(=N)N)NC(=O)[C@H](CC(N)=O)NC(=O)[C@H](C)NC(=O)[C@H](C)NC(=O)[C@H](CO)NC(=O)[C@@H](NC(=O)[C@H](C)NC(=O)[C@@H](NC(=O)[C@H](Cc1ccccc1)NC(=O)[C@H](CC(N)=O)NC(=O)[C@H](CCCCN)NC(=O)[C@H](CCCCN)NC(=O)[C@H](Cc1c[nH]c2ccccc12)NC(=O)[C@H](CCCNC(=N)N)NC(=O)[C@H](C)NC(=O)[C@H](C)NC(=O)[C@H](C)NC(=O)[C@@H](N)CS)[C@@H](C)CC)C(C)C)C(=O)N[C@@H](CO)C(N)=O [Peptide 15] (H-CAAARWKKNFIAVSAANRFKAIS-NH2; N-terminus assumed)	1.2 (10.3) × 10^-1 s^-1	0.00022	1.1e+06	0.00021	–	–	–
CC[C@H](C)[C@H](NC(=O)[C@H](Cc1ccccc1)NC(=O)[C@H](CC(N)=O)NC(=O)[C@H](CCCCN)NC(=O)[C@H](CCCCN)NC(=O)[C@H](Cc1c[nH]c2ccccc12)NC(=O)[C@H](CCCNC(=N)N)NC(=O)[C@H](C)NC(=O)[C@H](C)NC(=O)[C@H](C)NC(=O)[C@@H](N)CS)C(=O)N[C@@H](C)C(=O)N[C@H](C(=O)N[C@@H](CO)C(=O)N[C@@H](C)C(=O)N[C@@H](C)C(=O)N[C@@H](CC(N)=O)C(=O)N[C@@H](C)C(=O)N[C@@H](Cc1ccccc1)C(=O)N[C@@H](CCCCN)C(=O)N[C@@H](CCCCN)C(=O)N[C@H](C(=O)N[C@@H](CO)C(N)=O)[C@@H](C)CC)C(C)C [Peptide 12] (H-CAAARWKKNFIAVSAANAFKKIS-NH2; N-terminus assumed)	1.7 (10.4) × 10^-1 s^-1	0.00041	1.6e+06	0.00083	–	–	–
CC[C@H](C)[C@H](NC(=O)[C@H](C)NC(=O)[C@H](CC(N)=O)NC(=O)[C@H](CCCCN)NC(=O)[C@H](CCCCN)NC(=O)[C@H](Cc1c[nH]c2ccccc12)NC(=O)[C@H](CCCNC(=N)N)NC(=O)[C@H](C)NC(=O)[C@H](C)NC(=O)[C@H](C)NC(=O)[C@@H](N)CS)C(=O)N[C@@H](C)C(=O)N[C@H](C(=O)N[C@@H](CO)C(=O)N[C@@H](C)C(=O)N[C@@H](C)C(=O)N[C@@H](CC(N)=O)C(=O)N[C@@H](CCCNC(=N)N)C(=O)N[C@@H](Cc1ccccc1)C(=O)N[C@@H](CCCCN)C(=O)N[C@@H](CCCCN)C(=O)N[C@H](C(=O)N[C@@H](CO)C(N)=O)[C@@H](C)CC)C(C)C [Peptide 7] (H-CAAARWKKNAIAVSAANRFKKIS-NH2; N-terminus assumed)	2.5 (10.7) × 10^-1 s^-1	0.00039	900000	0.0006	–	–	–
CC[C@H](C)[C@H](NC(=O)[C@H](Cc1ccccc1)NC(=O)[C@H](CC(N)=O)NC(=O)[C@H](CCCCN)NC(=O)[C@H](CCCCN)NC(=O)[C@H](Cc1c[nH]c2ccccc12)NC(=O)[C@H](CCCNC(=N)N)NC(=O)[C@H](C)NC(=O)[C@H](C)NC(=O)[C@H](C)NC(=O)[C@@H](N)CS)C(=O)N[C@@H](C)C(=O)N[C@H](C(=O)N[C@@H](CO)C(=O)N[C@@H](C)C(=O)N[C@@H](C)C(=O)N[C@@H](CC(N)=O)C(=O)N[C@@H](CCCNC(=N)N)C(=O)N[C@@H](C)C(=O)N[C@@H](CCCCN)C(=O)N[C@@H](CCCCN)C(=O)N[C@H](C(=O)N[C@@H](CO)C(N)=O)[C@@H](C)CC)C(C)C [Peptide 13] (H-CAAARWKKNFIAVSAANRAKKIS-NH2; N-terminus assumed)	1.8 (10.8) × 10^-1 s^-1	0.00084	930000	≥ 0.001	–	–	–
CC[C@H](C)[C@H](NC(=O)[C@H](CCCCN)NC(=O)[C@H](CCCCN)NC(=O)[C@H](Cc1ccccc1)NC(=O)[C@H](CCCNC(=N)N)NC(=O)[C@H](CC(N)=O)NC(=O)[C@H](C)NC(=O)[C@H](C)NC(=O)[C@H](CO)NC(=O)[C@@H](NC(=O)[C@H](C)NC(=O)[C@@H](NC(=O)[C@H](Cc1ccccc1)NC(=O)[C@H](CC(N)=O)NC(=O)[C@H](CCCCN)NC(=O)[C@H](CCCCN)NC(=O)[C@H](Cc1c[nH]c2ccccc12)NC(=O)[C@H](CCCNC(=N)N)NC(=O)[C@H](C)NC(=O)[C@H](C)NC(=O)[C@H](C)NC(=O)[C@@H](N)CS)[C@@H](C)CC)C(C)C)C(=O)N[C@@H](C)C(N)=O [Peptide 17] (H-CAAARWKKNFIAVSAANRFKKIA-NH2; N-terminus assumed)	1.3 (10.4) × 10^-1 s^-1	0.00013	820000	7e-05	largest improvements	greatest improvement in Kd	–
CC[C@H](C)[C@H](NC(=O)[C@H](Cc1ccccc1)NC(=O)[C@H](CC(N)=O)NC(=O)[C@H](CCCCN)NC(=O)[C@H](CCCCN)NC(=O)[C@H](Cc1c[nH]c2ccccc12)NC(=O)[C@H](CCCNC(=N)N)NC(=O)[C@H](C)NC(=O)[C@H](C)NC(=O)[C@H](C)NC(=O)[C@@H](N)CS)C(=O)N[C@@H](C)C(=O)N[C@@H](C)C(=O)N[C@@H](CO)C(=O)N[C@@H](C)C(=O)N[C@@H](C)C(=O)N[C@@H](CC(N)=O)C(=O)N[C@@H](CCCNC(=N)N)C(=O)N[C@@H](Cc1ccccc1)C(=O)N[C@@H](CCCCN)C(=O)N[C@@H](CCCCN)C(=O)N[C@H](C(=O)N[C@@H](CO)C(N)=O)[C@@H](C)CC [Peptide 9] (H-CAAARWKKNFIAASAANRFKKIS-NH2; N-terminus assumed)	1.5 (10.3) × 10^-1 s^-1	0.0012	860000	≥ 0.001	–	–	dissociated from calmodulin in a few minutes
CC[C@H](C)[C@H](NC(=O)[C@H](Cc1ccccc1)NC(=O)[C@H](C)NC(=O)[C@H](CCCCN)NC(=O)[C@H](CCCCN)NC(=O)[C@H](Cc1c[nH]c2ccccc12)NC(=O)[C@H](CCCNC(=N)N)NC(=O)[C@H](C)NC(=O)[C@H](C)NC(=O)[C@H](C)NC(=O)[C@@H](N)CS)C(=O)N[C@@H](C)C(=O)N[C@H](C(=O)N[C@@H](CO)C(=O)N[C@@H](C)C(=O)N[C@@H](C)C(=O)N[C@@H](CC(N)=O)C(=O)N[C@@H](CCCNC(=N)N)C(=O)N[C@@H](Cc1ccccc1)C(=O)N[C@@H](CCCCN)C(=O)N[C@@H](CCCCN)C(=O)N[C@H](C(=O)N[C@@H](CO)C(N)=O)[C@@H](C)CC)C(C)C [Peptide 6] (H-CAAARWKKAFIAVSAANRFKKIS-NH2; N-terminus assumed)	1.8 (10.9) × 10^-1 s^-1	≥ 0.0001	980000	2.2e-06	largest improvements	greatest improvement in affinity; also recorded: greatest improvement in Kd	hardly competed by an excess of unlabelled peptide after 1000 minutes
